Source: patent US9493435B2, “IRE-1α inhibitors” (MannKing Corporation, priority 2009, dated 2016)
Where a name gives a salt, the structure may show the parent alone.

Experiments:
[1] = target: human IRE-1α (GST-IRE-1α) (Homo sapiens (Human), UniProt O75460); assay: IRE-1α assay (cleavage of mini-XBP-1 mRNA stem-loop substrate); type: biochemical; conditions: average IC50 for inhibition of IRE-1α in vitro
Method: A fusion protein comprising glutathione S transferase (GST) and human IRE-1α (GST-IRE-1α) obtained from a 500 ml baculovirus-infected insect cell culture can be used to measure IRE-1α activity in vitro. Five μl of a reaction mixture comprising 1× reaction buffer (5× reaction buffer is 100 mM Hepes pH 7.5, 250 mM KOAc, 2.5 mM MgCl2), 3 mM DTT, and 0.4% polyethylene glycol water is added to each well of 384 well plates. Twenty-five nanoliters of a 1 mM test compound solution are added to test wells. […] Negative control wells contain only reaction mixture and test compound. After spinning the plates at 1200 rpm for 30 seconds, 3 μl of an IRE-1α human mini-XBP-1 mRNA stem-loop substrate [NT] ID NO:1), labeled with the fluorescent dye Cy5 at the [NT] end, are added to each well of a control plate. The plates are again spun at 1200 rpm for 30 seconds. […] The plates are covered with lids and incubated for one hour at 30° C. The plates are then transferred to an […] microplate reader. Data is analyzed using data analysis software, and the percent activity of IRE-1α is calculated.

[2] = tested on: IRE-1α-mediated XBP-1 splicing in human myeloma MM.1s cells; assay: Cellular XBP-1 splicing assay in myeloma cells (RT-PCR); type: cell-based; conditions: Homo sapiens, MM1.S; average EC50, endogenous XBP-1 splicing in myeloma cells, DTT stress
Method: After an additional 45 minutes (2 hours total) with compound and DTT, the cells are harvested with TRIZOL® (a mono-phasic solution of phenol and guanidine isothiocyanate), and total RNA is prepared as directed by the manufacturer (Invitrogen). Human XBP-1 is amplified by RT-PCR with the following primers, which flank the 26 base unconventional intron excised by IRE-1α:
RT-PCR of unstressed (U) cells then generates the upper band. When cells are stressed (S) with the endoplasmic reticulum (ER) stressing agent DTT, IRE-1α is activated due to accumulating unfolded protein and the resulting RT-PCR product is 26 base pairs shorter.
Compounds which pass specificity assays are assayed for cellular EC50 using endogenous XBP-1 splicing in myeloma cells. XBP-1 is regulated through the excision of a 26 nucleotide intron from the XBP-1 mRNA by the highly specific endoribonuclease activity of IRE-1α. […] This splicing event is used to measure IRE-1α activity on XBP-1 mRNA in cells and tissues.
Briefly, compounds are incubated in the presence or absence of an ER stress agent (e.g., DTT), and the ratio of XBP-1u (unspliced) to XBP-1s (spliced) is quantified by RT-PCR.

human IRE-1α (GST-IRE-1α), sequence (O75460 19-977): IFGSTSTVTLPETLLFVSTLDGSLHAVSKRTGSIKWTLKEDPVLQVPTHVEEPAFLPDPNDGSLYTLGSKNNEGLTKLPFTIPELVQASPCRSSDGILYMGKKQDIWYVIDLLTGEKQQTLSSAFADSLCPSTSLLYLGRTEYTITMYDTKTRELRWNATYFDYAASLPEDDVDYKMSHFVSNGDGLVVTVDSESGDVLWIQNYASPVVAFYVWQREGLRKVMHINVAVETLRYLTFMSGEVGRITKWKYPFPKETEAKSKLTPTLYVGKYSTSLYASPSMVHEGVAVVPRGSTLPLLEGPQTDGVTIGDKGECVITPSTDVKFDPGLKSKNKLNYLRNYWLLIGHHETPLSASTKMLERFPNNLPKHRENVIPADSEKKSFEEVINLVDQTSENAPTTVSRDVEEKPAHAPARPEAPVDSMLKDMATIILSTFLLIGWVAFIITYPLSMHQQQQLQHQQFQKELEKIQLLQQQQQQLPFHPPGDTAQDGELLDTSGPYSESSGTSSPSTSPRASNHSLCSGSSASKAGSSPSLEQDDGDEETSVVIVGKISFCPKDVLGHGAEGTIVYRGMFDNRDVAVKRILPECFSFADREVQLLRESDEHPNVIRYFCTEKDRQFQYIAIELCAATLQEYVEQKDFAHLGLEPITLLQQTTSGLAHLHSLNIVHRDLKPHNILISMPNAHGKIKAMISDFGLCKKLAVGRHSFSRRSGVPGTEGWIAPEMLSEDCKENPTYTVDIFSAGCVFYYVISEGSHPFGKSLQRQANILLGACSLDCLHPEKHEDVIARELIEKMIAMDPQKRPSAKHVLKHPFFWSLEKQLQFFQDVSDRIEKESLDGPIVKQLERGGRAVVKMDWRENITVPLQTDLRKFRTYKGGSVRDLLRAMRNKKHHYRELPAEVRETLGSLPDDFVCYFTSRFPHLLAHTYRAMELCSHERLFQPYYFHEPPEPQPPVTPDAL

| IC50 [1] [nM] | EC50 [2] [nM] | Compound |
| --- | --- | --- |
| < 100 | < 10000 | Cc1cc(C(=O)N(C)C)sc1-c1ccc2c(C=O)c(O)ccc2c1 [Compound 33] |
| < 100 | < 10000 | Cc1cc(C(=O)N2CCN(C)CC2)sc1-c1ccc2c(C=O)c(O)ccc2c1 [Compound 34] |
| < 100 | < 10000 | CN(C)C(=O)c1ccc(-c2ccc3c(C=O)c(O)ccc3c2)o1 [Compound 35] |
| < 100 | < 10000 | O=Cc1c(O)ccc2cc(-c3ccc(C(=O)NCCN4CCOCC4)s3)ccc12 [Compound 36] |
| < 100 | < 10000 | O=Cc1c(O)ccc2cc(-c3ccc(C(=O)NCCCN4CCOCC4)s3)ccc12 [Compound 37] |
| < 1000 | < 10000 | CN1CCC(NC(=O)c2ccc(-c3ccc4c(C=O)c(O)ccc4c3)s2)CC1 [Compound 38] |
| < 1000 | > 10000 | O=Cc1c(O)ccc2cc(CCC(=O)O)ccc12 [Compound 39] |
| > 1000 | > 10000 | CCOC(=O)CCc1ccc2c(C=O)c(O)ccc2c1 [Compound 40] |
| < 100 | < 10000 | O=Cc1c(O)ccc2cc(-c3ccc(C(=O)NCC4CCCCN4)s3)ccc12 (stereo not drawn) [Compound 41] |
| < 100 | < 10000 | O=Cc1c(O)ccc2cc(-c3ccc(C(=O)NCC4CCCNC4)s3)ccc12 (stereo not drawn) [Compound 42] |
| < 100 | < 10000 | O=Cc1c(O)ccc2cc(-c3ccc(C(=O)NCC4CCNCC4)s3)ccc12 [Compound 43] |
| < 1000 | < 10000 | NCCOCCOCCNC(=O)c1ccc(-c2ccc3c(C=O)c(O)ccc3c2)s1 [Compound 45] |
| < 100 | < 10000 | O=Cc1c(O)ccc2cc(-c3ccc(C(=O)NC4CCNCC4)s3)ccc12 [Compound 46] |
| < 100 | < 10000 | O=Cc1c(O)ccc2cc(-c3ccc(C(=O)NC4CCCNC4)s3)ccc12 (stereo not drawn) [Compound 47] |
| < 100 | < 10000 | O=Cc1c(O)ccc2cc(-c3ccc(C(=O)NC4CCNCC4)cc3)ccc12 [Compound 48] |
| < 100 | < 10000 | O=Cc1c(O)ccc2cc(-c3ccc(C(=O)NC4CCCNC4)cc3)ccc12 (stereo not drawn) [Compound 49] |
| < 1000 | < 10000 | CN1CCN(C(=O)c2ccc(-c3ccc4c(C=O)c(O)ccc4c3)cn2)CC1 [Compound 50] |
| < 1000 | < 10000 | CN(C)C(=O)CCc1ccc2c(C=O)c(O)ccc2c1 [Compound 51] |
| < 1000 | < 10000 | O=Cc1c(O)ccc2cc(CCC(=O)N3CCOCC3)ccc12 [Compound 52] |

| IC50 [1] [nM] | EC50 [2] [nM] | Compound |
| --- | --- | --- |
| < 1000 | < 10000 | O=Cc1c(O)ccc2cc(-c3ccc(C(=O)N4CCNCC4)s3)ccc12 [Compound 53] |
| > 1000 | > 10000 | O=Cc1c(O)ccc2cc(N3CCOCC3)ccc12 [Compound 54] |
| < 1000 | < 10000 | NCCN1CCN(C(=O)c2ccc(-c3ccc4c(C=O)c(O)ccc4c3)s2)CC1 [Compound 55] |
| < 1000 | < 10000 | CN1CCN(C(=O)c2ccc(-c3ccc4c(C=O)c(O)ccc4c3)nc2)CC1 [Compound 57] |
| > 1000 | > 10000 | O=Cc1c(O)ccc2cc(N3CCCC3)ccc12 [Compound 59] |
| < 100 | < 10000 | CN1CCN(C(=O)c2csc(-c3ccc4c(C=O)c(O)ccc4c3)n2)CC1 [Compound 60] |
| < 100 | < 10000 | CN1CCN(C(=O)c2cnc(-c3ccc4c(C=O)c(O)ccc4c3)s2)CC1 [Compound 61] |
| < 100 | < 10000 | CN1CCCCC1CNC(=O)c1ccc(-c2ccc3c(C=O)c(O)ccc3c2)s1 (stereo not drawn) [Compound 62] |
| < 1000 | < 10000 | CN1CCN(C(=O)/C=C/c2ccc3c(C=O)c(O)ccc3c2)CC1 [Compound 63] |
| > 1000 | > 10000 | CSc1ncc(-c2ccc3c(C=O)c(O)ccc3c2)cn1 [Compound 64] |
| < 1000 | < 10000 | CN1CCN(C(=O)c2cc(-c3ccc4c(C=O)c(O)ccc4c3)ccn2)CC1 [Compound 66] |
| < 1000 | < 10000 | CN1CCN(C(=O)c2cncc(-c3ccc4c(C=O)c(O)ccc4c3)c2)CC1 [Compound 67] |
| < 100 | < 10000 | CN1CCCC(CNC(=O)c2ccc(-c3ccc4c(C=O)c(O)ccc4c3)s2)C1 (stereo not drawn) [Compound 69] |
| < 100 | < 10000 | O=Cc1c(O)ccc2cc(-c3ccc(C(=O)NCCN4CCOCC4)o3)ccc12 [Compound 71] |
| < 100 | < 10000 | CN(C)CCNC(=O)c1ccc(-c2ccc3c(C=O)c(O)ccc3c2)s1 [Compound 72] |
| < 100 | < 10000 | O=Cc1c(O)ccc2cc(-c3ccc(C(=O)NC4CCNC4)s3)ccc12 (stereo not drawn) [Compound 73] |
| < 1000 | > 10000 | CN(C)CCCNC(=O)c1ccc(-c2ccc3c(C=O)c(O)ccc3c2)s1 [Compound 74] |
| < 100 | < 10000 | O=Cc1c(O)ccc2cc(-c3ccc(C(=O)N4CC5CC4CN5)s3)ccc12 (stereo not drawn) [Compound 75] |
| < 1000 | < 10000 | CN1CCN(C(=O)c2coc(-c3ccc4c(C=O)c(O)ccc4c3)n2)CC1 [Compound 76] |

| IC50 [1] [nM] | EC50 [2] [nM] | Compound |
| --- | --- | --- |
| > 1000 | < 10000 | O=Cc1c(O)ccc2cc(-c3ccc(C(=O)NCC4CCCCN4)o3)ccc12 (stereo not drawn) [Compound 77] |
| < 100 | < 10000 | CN1CCCC(NC(=O)c2ccc(-c3ccc4c(C=O)c(O)ccc4c3)s2)C1 (stereo not drawn) [Compound 78] |
| < 100 | < 10000 | CN1CCC(NC(=O)c2ccc(-c3ccc4c(C=O)c(O)ccc4c3)s2)C1 (stereo not drawn) [Compound 79] |
| < 100 | < 10000 | CN1CCN(c2ncc(-c3ccc4c(C=O)c(O)ccc4c3)cn2)CC1 [Compound 80] |
| > 1000 | > 10000 | O=Cc1c(O)ccc2cc(N3CCN(c4ccccn4)CC3)ccc12 [Compound 81] |
| < 1000 | < 10000 | O=Cc1c(O)ccc2cc(N3CCC(N4CCOCC4)CC3)ccc12 [Compound 82] |
| < 1000 | > 10000 | CC(=O)N1CCN(c2ccc3c(C=O)c(O)ccc3c2)CC1 [Compound 83] |
| < 1000 | > 10000 | CC(=O)NC1CCN(c2ccc3c(C=O)c(O)ccc3c2)CC1 [Compound 84] |
| < 10 | < 10000 | CN(C)C1CCN(c2ccc3c(C=O)c(O)ccc3c2)CC1 [Compound 85] |
| < 10 | < 10000 | CN1CCN(C2CCN(c3ccc4c(C=O)c(O)ccc4c3)CC2)CC1 [Compound 86] |
| > 1000 | < 10000 | O=Cc1c(O)ccc2ccc(N3CCOCC3)cc12 [Compound 88] |
| > 1000 | > 10000 | CN1CCN(C2CCN(c3ccc4ccc(O)c(C=O)c4c3)CC2)CC1 [Compound 89] |
| > 1000 | < 10000 | O=Cc1c(O)ccc2ccc(N3CCC(N4CCOCC4)CC3)cc12 [Compound 90] |
| > 1000 | > 10000 | CN1CCN(C(=O)C2CCN(c3ccc4c(C=O)c(O)ccc4c3)CC2)CC1 [Compound 91] |
| > 1000 | > 10000 | CS(=O)(=O)N1CCN(c2ccc3c(C=O)c(O)ccc3c2)CC1 [Compound 92, 2-Hydroxy-6-(4-methanesulfonyl-piperazin-1-yl)-naphthalene-1-carbaldehyde] |
| > 1000 | < 10000 | CS(=O)(=O)NC1CCN(c2ccc3c(C=O)c(O)ccc3c2)CC1 [Compound 93] |
| > 1000 | > 10000 | CS(=O)(=O)NC1CCCN(c2ccc3c(C=O)c(O)ccc3c2)C1 (stereo not drawn) [Compound 94] |
| > 1000 | > 10000 | O=Cc1c(O)ccc2cc(N3CCN(Cc4ccccc4)CC3)ccc12 [Compound 95] |
| 1000 | > 10000 | O=Cc1c(O)ccc2cc(N3CCN(Cc4ccccn4)CC3)ccc12 [Compound 96, 2-Hydroxy-6-(4-pyridin-2-ylmethyl-piperazin-1-yl)-naphthalene-1-carbaldehyde] |

| Compound | IC50 [1] [nM] | EC50 [2] [nM] |
| --- | --- | --- |
| CN1CCN(c2ccc3c(C=O)c(O)ccc3c2)CC1 [Compound 58, 2-Hydroxy-6-(4-methyl-piperazin-1-yl)-naphthalene-1-carbaldehyde hydrochloride] | > 1000 | < 10000 |
| Cc1nc(-c2ccc3c(C=O)c(O)ccc3c2)sc1C(=O)N1CCN(C)CC1 [Compound 65] | < 100 | < 10000 |
| CN1CCN(c2ccc3ccc(O)c(C=O)c3c2)CC1 [Compound 87] | > 1000 | > 10000 |
